Test results: patent US20040034009A1, “1,6-Fused uracil derivatives as matrix metalloproteinase inhibitors” (priority 2002, published 2004)

Target: human MMP-13 catalytic domain (hMMP-13CD) (Homo sapiens, UniProt P45452)
Experiment: Inhibition of MMP-13 catalytic domain (thiopeptolide substrate assay)
Format: biochemical
Description: The assays measure the amount by which a test compound reduces the hydrolysis of a thiopeptolide substrate catalyzed by a matrix metalloproteinase enzyme. Such assays are described in detail by Ye et al., in Biochemistry, 1992;31(45):11231-11235, which is incorporated herein by reference. One such assay is described below in Biological Method 1.
Thiopeptolide substrates show virtually no decomposition or hydrolysis at or below neutral pH in the absence of a matrix metalloproteinase enzyme. A typical thiopeptolide substrate commonly utilized for assays is Ac-Pro-Leu-Gly-thioester-Leu-Leu-Gly-OEt. […] The change in absorbance at 405 nm is monitored on a Thermo Max microplate reader (molecular Devices, Menlo Park, Calif.) at room temperature (22° C.). […]
Some representative compounds of Formula I have been evaluated for their ability to inhibit MMP-13. Inhibitor activity versus other MMPs with the compounds may be determined using, for example, MMP-1FL, which refers to full length interstitial collagenase; MMP-2FL, which refers to full length Gelatinase A; MMP-3CD, which refers to the catalytic domain of stromelysin; MMP-7FL, which refers to full length matrilysin; MMP-9FL, which refers to full length Gelatinase B; MMP-13CD, which refers to the catalytic domain of collagenase 3; and MMP-14CD, which refers to the catalytic domain of MMP-14. […]

SMILES: O=C(O)c1ccc(Cn2ccc3ccc(C#CCn4ccnn4)cc3c2=O)cc1 [4-[1-oxo-7-(3-[1,2,3]triazol-1-ylprop-1-ynyl)-1H-isoquinolin-2-ylmethyl]benzoic acid]
- IC50: > 50 µM
